Consider 20 molecules from ChEMBL document CHEMBL1146225, “[1,2,3]Triazolo[4,5-h]quinolones. A new class of potent antitubercular agents against multidrug resistant Mycobacterium tuberculosis strains” (Bioorg Med Chem Lett, 2007).

Values after ≈ are worked out from the molar mass of the structure shown.

What all share (type): functional
Experiment [1] deals with Mycobacterium tuberculosis. The experiment in a line: Antitubercular activity against Mycobacterium tuberculosis SS7.
The test system of experiment [2] is Mycobacterium tuberculosis. The experiment in a line: Antitubercular activity against Mycobacterium tuberculosis SS3.
In experiment [3] the test system is Mycobacterium tuberculosis. Briefly: Antitubercular activity against Mycobacterium tuberculosis SS2.
Experiment [4] has as its system Mycobacterium tuberculosis. Briefly: Antitubercular activity against Mycobacterium tuberculosis SS4.
The test system of experiment [5] is Mycobacterium tuberculosis. Briefly: Antitubercular activity against Mycobacterium tuberculosis SS1.
Experiment [6] has as its system Mycobacterium tuberculosis. Briefly: Antitubercular activity against Mycobacterium tuberculosis SS8.
Experiment [7] concerns Mycobacterium tuberculosis. The experiment in a line: Antitubercular activity against Mycobacterium tuberculosis SS10.
Experiment [8] has as its system Mycobacterium tuberculosis. Briefly: Antitubercular activity against Mycobacterium tuberculosis SS5.
Experiment [9] relates to Mycobacterium tuberculosis. Briefly: Antitubercular activity against Mycobacterium tuberculosis SS6.
For experiment [10], the system named is Mycobacterium tuberculosis. Briefly: Antitubercular activity against Mycobacterium tuberculosis SS9.
For experiment [11], the system named is Mycobacterium tuberculosis. The experiment in a line: Antitubercular activity against Mycobacterium tuberculosis H37Rv.
Experiment [12] relates to Mycobacterium tuberculosis. The experiment in a line: Antitubercular activity against Mycobacterium tuberculosis SS11.

As for `CCOC(=O)c1cn(C)c2c(ccc3c2nnn3C)c1=O`, the MIC90 in experiment [1] was 0.5 µg/mL (≈ 1.75 µM); in [2], 0.5 µg/mL (≈ 1.75 µM); in experiment [3] it was 0.5 µg/mL (≈ 1.75 µM); in experiment [4], 2 µg/mL (≈ 6.99 µM); in experiment [5], 0.5 µg/mL (≈ 1.75 µM); in [6], 0.5 µg/mL (≈ 1.75 µM). Further, the MIC90 in experiment [7], in [8], in experiment [9], in experiment [10], in experiment [11] and in experiment [12] was 0.5 µg/mL (≈ 1.75 µM) in each case.
As for `Cn1cc(C(=O)O)c(=O)c2ccc3c(nnn3C)c21`, the MIC90 in [1] worked out at 0.5 µg/mL (≈ 1.94 µM); in experiment [2] it was 0.5 µg/mL (≈ 1.94 µM); in experiment [3], 0.5 µg/mL (≈ 1.94 µM); in experiment [4], 2 µg/mL (≈ 7.74 µM); in experiment [5] it was 0.5 µg/mL (≈ 1.94 µM); in experiment [6], 0.5 µg/mL (≈ 1.94 µM). For the same molecule, the MIC90 in [7], in experiment [8], in experiment [9], in [10], in experiment [11] and in experiment [12] was 0.5 µg/mL (≈ 1.94 µM) each time.
Regarding `Cn1nnc2c3c(ccc21)c(=O)c(C(=O)O)cn3Cc1ccccc1`, the MIC90 in [1], in [2], in experiment [3], in [4], in [5] and in experiment [6] was above 32 µg/mL throughout. Besides, the MIC90 in [7], in experiment [8], in experiment [9], in experiment [10], in experiment [11] and in [12] was above 32 µg/mL in each case.
Take `CCn1cc(C(=O)O)c(=O)c2ccc3c(nnn3C)c21`: the MIC90 amounted to 3.2 µg/mL (≈ 11.8 µM) in experiment [1]; 3.2 µg/mL (≈ 11.8 µM) in experiment [2]; 0.8 µg/mL (≈ 2.94 µM) in experiment [3]; 3.2 µg/mL (≈ 11.8 µM) in [4]; 1.6 µg/mL (≈ 5.88 µM) in experiment [5]; 1.6 µg/mL (≈ 5.88 µM) in experiment [6]. For the same molecule, the MIC90 in experiment [7], in experiment [8], in [9], in experiment [10], in [11] and in [12] was 1.6 µg/mL (≈ 5.88 µM) throughout.
`C=CCn1cc(C(=O)O)c(=O)c2ccc3c(nnn3C)c21`: the MIC90 in [1], in experiment [2], in experiment [3], in experiment [4], in experiment [5] and in experiment [6] was above 32 µg/mL throughout. In addition, the MIC90 in experiment [7], in experiment [8], in experiment [9], in experiment [10], in experiment [11] and in experiment [12] was above 32 µg/mL in each case.
In the case of `Cn1nnc2c3c(ccc21)c(=O)c(C(=O)O)cn3Cc1ccc(Br)cc1`, the MIC90 in [1], in experiment [2], in experiment [3], in experiment [4], in [5] and in experiment [6] was above 32 µg/mL in each case. Besides, the MIC90 in experiment [7], in experiment [8], in experiment [9], in [10], in experiment [11] and in [12] was above 32 µg/mL throughout.
`Cn1nnc2c3[nH]cc(C(=O)O)c(=O)c3ccc21` showed an MIC90 in experiment [11] of 4.8 µg/mL (≈ 19.7 µM).
On to `CCOC(=O)c1cn(CCc2ccccc2)c2c(ccc3c2nnn3C)c1=O`, for which the MIC90 in [1], in [2], in experiment [3], in [4], in experiment [5] and in [6] was above 32 µg/mL each time. The MIC90 in experiment [7], in [8], in experiment [9], in [10], in experiment [11] and in experiment [12] was above 32 µg/mL throughout.
In the case of `CCCn1cc(C(=O)OCC)c(=O)c2ccc3c(nnn3C)c21`, the MIC90 in experiment [1], in [2], in experiment [3], in experiment [4], in [5] and in experiment [6] was above 32 µg/mL throughout. The MIC90 in experiment [7], in experiment [8], in experiment [9], in [10], in experiment [11] and in experiment [12] was above 32 µg/mL in each case.
Take `CCCn1cc(C(=O)O)c(=O)c2ccc3c(nnn3C)c21`: the MIC90 in experiment [1] came to 3.2 µg/mL (≈ 11.2 µM); in experiment [2], 1.6 µg/mL (≈ 5.59 µM); in experiment [3], 1.6 µg/mL (≈ 5.59 µM); in experiment [4], 3.2 µg/mL (≈ 11.2 µM); in [5], 1.6 µg/mL (≈ 5.59 µM); in experiment [6], 1.6 µg/mL (≈ 5.59 µM). Further, the MIC90 in experiment [7] turned out to be 1.6 µg/mL (≈ 5.59 µM); in [8], 3.2 µg/mL (≈ 11.2 µM); in [9], 1.6 µg/mL (≈ 5.59 µM); in [10], 1.6 µg/mL (≈ 5.59 µM); in experiment [11], 1.6 µg/mL (≈ 5.59 µM); in experiment [12], 1.6 µg/mL (≈ 5.59 µM).
Turning to `Cc1ccc(Cn2cc(C(=O)O)c(=O)c3ccc4c(nnn4C)c32)cc1`, the MIC90 in experiment [1], in experiment [2], in experiment [3], in experiment [4], in experiment [5] and in experiment [6] was above 32 µg/mL each time. Also, the MIC90 in experiment [7], in [8], in experiment [9], in experiment [10], in [11] and in [12] was above 32 µg/mL each time.
In experiment [11], `CCn1cc(C(=O)O)c(=O)c2ccc3nn(C)nc3c21` yielded an MIC90 of 5 µg/mL (≈ 18.4 µM).
With `CO[C@H]1/C=C/O[C@@]2(C)Oc3c(C)c(O)c4c(O)c(c(/C=N/N5CCN(C)CC5)c(O)c4c3C2=O)NC(=O)/C(C)=C\C=C\[C@H](C)[C@H](O)[C@@H](C)[C@@H](O)[C@@H](C)[C@H](OC(C)=O)[C@@H]1C` [RIFAMPIN], the MIC90 in [1] was 0.8 µg/mL (≈ 0.972 µM); in experiment [2], 0.5 µg/mL (≈ 0.608 µM); in experiment [3], above 4 µg/mL; in experiment [4], 0.7 µg/mL (≈ 0.851 µM); in experiment [5] it was above 4 µg/mL; in experiment [6], 0.5 µg/mL (≈ 0.608 µM). The MIC90 in experiment [7] was 0.8 µg/mL (≈ 0.972 µM); in experiment [8], 0.5 µg/mL (≈ 0.608 µM); in experiment [9], above 4 µg/mL; in experiment [10], 0.5 µg/mL (≈ 0.608 µM); in experiment [11], 0.7 µg/mL (≈ 0.851 µM); in experiment [12], 0.5 µg/mL (≈ 0.608 µM).
Regarding `CCOC(=O)c1cn(Cc2ccc(C)cc2)c2c(ccc3c2nnn3C)c1=O`, the MIC90 in [1], in experiment [2], in experiment [3], in experiment [4], in experiment [5] and in experiment [6] was above 32 µg/mL each time. For the same molecule, the MIC90 in experiment [7], in experiment [8], in experiment [9], in experiment [10], in experiment [11] and in experiment [12] was above 32 µg/mL each time.
Take `CCn1cc(C(=O)O)c(=O)c2ccc3c(nnn3CC)c21`: in [11], the MIC90 was found to be 1.6 µg/mL (≈ 5.59 µM).
For `CCOC(=O)c1cn(Cc2ccc(Br)cc2)c2c(ccc3c2nnn3C)c1=O`, the MIC90 in experiment [1], in [2], in [3], in experiment [4], in [5] and in experiment [6] was above 32 µg/mL each time. In addition, the MIC90 in experiment [7], in [8], in [9], in experiment [10], in experiment [11] and in [12] was above 32 µg/mL in each case.
For `C=CCn1cc(C(=O)OCC)c(=O)c2ccc3c(nnn3C)c21`, the MIC90 in [1], in experiment [2], in experiment [3], in experiment [4], in experiment [5] and in experiment [6] was above 32 µg/mL throughout. For the same molecule, the MIC90 in experiment [7], in [8], in experiment [9], in experiment [10], in [11] and in experiment [12] was above 32 µg/mL each time.
As for `Cn1nnc2c3c(ccc21)c(=O)c(C(=O)O)cn3CCc1ccccc1`, the MIC90 was 3.2 µg/mL (≈ 9.19 µM) in [1]; 3.2 µg/mL (≈ 9.19 µM) in [2]; 0.8 µg/mL (≈ 2.3 µM) in [3]; 3.2 µg/mL (≈ 9.19 µM) in [4]; 0.8 µg/mL (≈ 2.3 µM) in experiment [5]; 0.8 µg/mL (≈ 2.3 µM) in [6]. The MIC90 is 3.2 µg/mL (≈ 9.19 µM) in [7]; 3.2 µg/mL (≈ 9.19 µM) in experiment [8]; 3.2 µg/mL (≈ 9.19 µM) in experiment [9]; 0.8 µg/mL (≈ 2.3 µM) in [10]; 0.8 µg/mL (≈ 2.3 µM) in [11]; 0.8 µg/mL (≈ 2.3 µM) in experiment [12].
In the case of `CCCCn1cc(C(=O)O)c(=O)c2ccc3c(nnn3C)c21`, the MIC90 in experiment [1], in experiment [2], in experiment [3], in experiment [4], in experiment [5] and in experiment [6] was above 32 µg/mL throughout. Further, the MIC90 in experiment [7], in experiment [8], in experiment [9], in experiment [10], in experiment [11] and in experiment [12] was above 32 µg/mL throughout.
For the molecule `CCOC(=O)c1cn(Cc2ccccc2)c2c(ccc3c2nnn3C)c1=O`, the MIC90 in [1], in experiment [2], in [3], in experiment [4], in experiment [5] and in experiment [6] was above 32 µg/mL each time. Besides, the MIC90 in experiment [7], in experiment [8], in experiment [9], in experiment [10], in experiment [11] and in experiment [12] was above 32 µg/mL in each case.

Broadly, the MIC90 is an inhibitory concentration at the 90% level, which refers to growth in some studies and to a panel of isolates in others. Higher therefore signals lower susceptibility.
